In US20230292743A1, “Method for increasing the lifespan and motility of animal sperm using an inhibitor of Slo3 potassium channel” (IMV TECHNOLOGIES, priority 2017, published 2023):

Tested on: mouse sperm
Test: Ability of mouse sperm to fertilize oocytes after incubation in capacitation medium (in vitro fertilization, 2-cell embryos)
Format: cell-based
Settings: 25 μM quinidine in M16-BSA medium, 12 hours incubation, vs control
Description: Mouse sperm was obtained by manual trituration of caudae epididymides from male and were allowed to swim in M2 medium (from Sigma) for 10 minutes. The M2 medium composition in g/L is as follows: CaCl2 0.25; MgSO4 (anhydrous) 0.1649; KCl 0.35635; K2HPO4 0.162; NaHCO3 0.35; NaCl 5.53193; Albumin, Bovine Fraction V 4.0; D-Glucose 1.0; HEPES (for 4-(2-HydroxyEthyl)-1-Piperazine EthaneSulfonic acid)×Na 5.42726; Pyruvic Acid×Na 0.0363; DL-Lactic Acid×Na 2.95). Sperm were then capacitated in M16 medium (from Sigma) with 2% fatty acid-free BSA (for Bovine Serum Albumin) (named “M16-BSA medium”) at 37° C. in a 5% v/v CO2 incubator for different times as specified. M16 medium is a commercial and commonly used medium for in vitro fertilization and culture of preimplantation stage embryos. Oocytes were collected from mature OF1 females, synchronized with 5 units of pregnant mare serum gonadotrophin (PMSG) and 5 units of human chorionic gonadotrophin (HCG). Cumulus were harvested directly from the ampulla and sperm were injected into the M16 droplets containing the cumulus. 1. The first test related to the ability of mouse sperm to fertilize oocytes when incubated prior fertilization in a capacitation medium containing clofilium with regard to a control medium, which is the same capacitation medium but without clofilium. The capacitation medium was M16-BSA medium. The control medium was the M16-BSA medium containing the sperm. It was compared to the same medium further including clofilium at a concentration of 5 μM (in the M16-BSA medium containing the sperm). Sperm was incubated in M16-BSA medium with or without clofilium and then added to M16 droplets containing the cumulus comprising the oocytes. Two-cell embryos were counted at 48 h post insemination (n=3). The number of oocytes reaching the two-cell stage were counted at 48 hours after fertilization. Two different concentrations of clofilium were tested: 0.2 μM of clofilium and 5 μM of clofilium (in the M16-BSA medium containing the sperm). The sperm incubation time prior fertilization was 12 hours. The test related to the ability of mouse sperm to fertilize oocytes, sperm being incubated prior fertilization in a medium containing quinidine with regard to a control medium, without quinidine. The control medium was the M16-BSA medium containing the sperm (“control”). It was compared to the same medium further including quinidine, at various concentrations 5 μM quinidine (“5 μM quinidine”), 10 μM quinidine (“10 μM quinidine”), 25 μM quinidine (“25 μM quinidine”) and 100 μM quinidine (“100 μM quinidine”).

`C=C[C@H]1CN2CC[C@H]1C[C@@H]2[C@@H](O)c1ccnc2ccc(OC)cc12` [quinidine, (9S)-6′-methoxycinchonan-9-ol] was tested, and the “percentage of 2-cell embryos vs mature oocytes at 24 h post fertilization (sperm lifespan)” value was “better lifespan than the non-treated”.
